Measurements published in article PMC11423305, “Structure-Based Design of CBP/EP300 Degraders: When Cooperativity Overcomes Affinity” (JACS Au, 2024).
Like-named read-outs stand apart in the source and are kept apart here.

Key:
EP300-BRD = biological target: T1, EP300-BRD (Homo sapiens, UniProt Q09472); assay: BROMOscan ligand binding site-directed competition assay, EP300; conditions: for Kd: BROMOscan; for LE EP300 (ligand efficiency): LE = 1.4(pIC50)/N
T1 construct: T7 phage display fusion with DNA tag for qPCR; purchased Eurofins Discovery (BROMOscan service); host or cells: E. coli infected with T7 phage
T1 sequence (Q09472 1049-1156 limits assumed): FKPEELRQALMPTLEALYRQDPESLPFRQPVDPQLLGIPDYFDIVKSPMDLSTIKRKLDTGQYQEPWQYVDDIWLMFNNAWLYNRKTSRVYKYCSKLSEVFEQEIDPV
Procedure: (§1) 2. Methods and General Procedures […]
(§2) KD values were determined using BROMOscan™ technology, carried out by Eurofins […]
(§3) Discovery according to their standard protocol. Briefly E. coli were infected with T7 phage […]
(§4) strains displaying bromodomains and bromodomain protein was subsequently purified […]
(§5) through lysis, centrifugation and filtration. Affinity resins were generated by incubation of […]
(§6) streptavidin-coated magnetic beads with biotinylated small molecules or acetylated […]
(§7) peptide ligands. Binding reactions were assembled by combining the bromodomains and […]
(§8) liganded affinity beads in binding buffer (17 % SeaBlock, 0.33x PBS, 0.04 % Tween 20, […]
(§9) 0.02 % BSA, 0.004 % sodium azide and 7.4 mM DTT) with compounds (11-point, 3-fold […]
(§10) dilution series) added to give a final DMSO concentration of 0.09 %. Assay plates were […]
(§11) incubated for 1 h, prior to washing and elution of beads. The bromodomain concentration […]
(§12) in the eluates was measured by qPCR of the DNA tag on the bromodomain.
(§13) KD values were calculated with a standard dose-response curve fitted using the Hill […]
(§14) Response = Background + Signal − Background […]
(§15) The Hill Slope was set to -1 and curves fitted using a non-linear least square fit with the Levenberg-Marquardt algorithm.
(§16) Ligand efficiency (LE) was calculated as follows: LE = 1.4(pIC50)/N

CBP-BRD [1] = biological target: T2, CBP-BRD (Homo sapiens, UniProt Q92793); assay: BROMOscan ligand binding site-directed competition assay, CBP; set-up: T7 phage display fusion with DNA tag for qPCR; purchased Eurofins Discovery (BROMOscan service); host or cells: E. coli infected with T7 phage; conditions: for Kd: BROMOscan; for LE CBP (ligand efficiency): LE = 1.4(pIC50)/N
Procedure: as §1, §2, §3, §4, §5, §6, §7, §8, §9, §10, §11, §12, §13, §14, §15, §16

[2] = biological target: CRBN and CBP catalytic core (Homo sapiens, UniProt Q92793+Q96SW2); assay: FluoPPI cellular ternary complex formation, CBP catalytic core; type: cell-based; conditions: U2OS cells, 6 h
CBP = biological target: T3, CBP (Homo sapiens, UniProt Q92793); assay: Quantification of CBP degradation by Western blotting in LP1 cells; type: cell-based; conditions: 16 h, Western blot; for % remaining CBP: 5 μM compound
T3 construct: quantification of CBP and EP300 levels by Western blotting following 16 h treatment of LP1 cells; endogenous in cells; host or cells: LP1 cells
T3 sequence (Q92793 whole entry): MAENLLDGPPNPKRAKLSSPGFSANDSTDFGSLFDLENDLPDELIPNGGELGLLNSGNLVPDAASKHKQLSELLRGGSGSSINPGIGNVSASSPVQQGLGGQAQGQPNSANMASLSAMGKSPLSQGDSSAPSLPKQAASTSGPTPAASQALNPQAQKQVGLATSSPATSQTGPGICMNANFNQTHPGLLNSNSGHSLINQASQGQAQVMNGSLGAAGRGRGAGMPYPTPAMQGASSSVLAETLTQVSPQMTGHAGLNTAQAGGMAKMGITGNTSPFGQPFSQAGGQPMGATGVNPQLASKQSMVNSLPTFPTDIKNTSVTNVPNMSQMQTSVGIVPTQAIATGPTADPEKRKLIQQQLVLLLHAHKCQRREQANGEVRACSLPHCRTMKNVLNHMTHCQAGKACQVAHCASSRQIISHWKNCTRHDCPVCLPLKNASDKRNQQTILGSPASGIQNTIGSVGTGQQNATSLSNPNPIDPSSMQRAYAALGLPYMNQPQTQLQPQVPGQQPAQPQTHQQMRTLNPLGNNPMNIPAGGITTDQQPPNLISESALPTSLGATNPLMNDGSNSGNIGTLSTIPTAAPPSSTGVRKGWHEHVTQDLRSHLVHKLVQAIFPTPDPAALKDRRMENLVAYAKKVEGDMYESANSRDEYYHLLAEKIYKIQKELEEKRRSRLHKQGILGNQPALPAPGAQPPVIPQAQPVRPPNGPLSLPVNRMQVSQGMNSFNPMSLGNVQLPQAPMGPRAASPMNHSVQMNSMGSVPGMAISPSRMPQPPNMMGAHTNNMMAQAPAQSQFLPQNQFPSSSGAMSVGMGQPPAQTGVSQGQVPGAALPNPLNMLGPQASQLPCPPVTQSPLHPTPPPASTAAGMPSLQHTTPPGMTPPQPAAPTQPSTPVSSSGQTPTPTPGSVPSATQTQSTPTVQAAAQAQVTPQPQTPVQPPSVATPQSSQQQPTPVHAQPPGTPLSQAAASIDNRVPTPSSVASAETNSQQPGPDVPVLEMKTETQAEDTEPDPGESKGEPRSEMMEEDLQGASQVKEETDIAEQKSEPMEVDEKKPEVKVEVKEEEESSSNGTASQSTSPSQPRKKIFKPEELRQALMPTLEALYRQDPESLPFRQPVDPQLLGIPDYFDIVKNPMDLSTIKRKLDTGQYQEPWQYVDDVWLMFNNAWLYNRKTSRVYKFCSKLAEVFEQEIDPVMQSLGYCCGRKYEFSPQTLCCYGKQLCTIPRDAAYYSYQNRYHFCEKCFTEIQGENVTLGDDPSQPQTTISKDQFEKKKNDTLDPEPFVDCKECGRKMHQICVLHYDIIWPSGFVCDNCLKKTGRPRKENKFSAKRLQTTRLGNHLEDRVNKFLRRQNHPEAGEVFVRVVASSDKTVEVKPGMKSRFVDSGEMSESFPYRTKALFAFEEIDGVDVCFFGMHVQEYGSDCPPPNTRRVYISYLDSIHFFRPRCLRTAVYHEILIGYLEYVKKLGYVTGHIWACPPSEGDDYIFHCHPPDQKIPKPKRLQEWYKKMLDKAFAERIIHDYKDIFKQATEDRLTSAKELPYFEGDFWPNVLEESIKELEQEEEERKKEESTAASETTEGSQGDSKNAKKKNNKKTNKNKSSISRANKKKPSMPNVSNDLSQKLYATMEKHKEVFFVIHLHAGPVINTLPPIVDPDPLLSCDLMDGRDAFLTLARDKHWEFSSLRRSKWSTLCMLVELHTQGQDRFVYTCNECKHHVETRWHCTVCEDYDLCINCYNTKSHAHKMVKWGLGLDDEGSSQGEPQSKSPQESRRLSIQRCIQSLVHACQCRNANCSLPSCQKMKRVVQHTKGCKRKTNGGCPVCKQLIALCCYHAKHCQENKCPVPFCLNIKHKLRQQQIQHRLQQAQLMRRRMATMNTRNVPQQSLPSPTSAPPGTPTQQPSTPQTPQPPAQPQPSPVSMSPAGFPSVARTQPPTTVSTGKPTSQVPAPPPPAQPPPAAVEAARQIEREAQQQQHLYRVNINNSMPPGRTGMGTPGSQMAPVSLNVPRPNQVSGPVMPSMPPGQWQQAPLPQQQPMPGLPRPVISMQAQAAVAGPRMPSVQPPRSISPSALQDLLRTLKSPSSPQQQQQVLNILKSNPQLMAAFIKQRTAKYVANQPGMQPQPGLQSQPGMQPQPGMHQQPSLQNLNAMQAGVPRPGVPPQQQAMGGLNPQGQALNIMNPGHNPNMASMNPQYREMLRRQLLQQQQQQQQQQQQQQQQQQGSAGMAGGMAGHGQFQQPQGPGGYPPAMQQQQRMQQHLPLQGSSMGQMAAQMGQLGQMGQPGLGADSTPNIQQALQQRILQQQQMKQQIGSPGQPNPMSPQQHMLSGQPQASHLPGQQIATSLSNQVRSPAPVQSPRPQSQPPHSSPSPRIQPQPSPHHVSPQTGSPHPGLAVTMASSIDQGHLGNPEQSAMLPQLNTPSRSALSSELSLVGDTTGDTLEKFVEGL
Procedure: (§17) LP1 cells were cultured in DMEM (Gibco, 41966-029) supplemented with 15 % FBS (Sigma, F9665); MM1S and LNCaP cells in RPMI 1640 ATCC modification (Gibco, […]
(§18) DMEM/F12 (Gibco, 11320074) supplemented with 1 % non-essential amino acids […]
(§19) additionally supplemented with 1 % penicillin/streptomycin (Gibco, 15070-063), and cells maintained in a humidified incubator with 5 % CO2 at 37 °C. The identity of all lines (except for MM1S which were recently purchased from ATCC) was authenticated by STR profiling (performed by Microsynth).
(§20) Quantification of CBP/EP300 degradation by Western blotting
(§21) LP1 cells plated on 6 well plates were treated with the stated compounds at a final concentration of 0.1 % DMSO for the stated time. Cells were harvested on ice, washed in PBS and lysed in RIPA buffer (50 mM tris pH 7.5, 2 mM EDTA, 150 mM NaCl, 0.5 % sodium deoxycholate, 1 % Triton X100) supplemented with cOmplete ™ protease inhibitor cocktail (Roche). Protein concentrations were determined using the Pierce ™ BCA Protein Assay Kit (Thermo Scientific, 23227) and equal amounts were separated on 4-12 % ExpressPl us™ PAGE gels (GenScript, M41215). Proteins were transferred to PVDF membranes, the membranes were blocked with 5 % milk (Merk Millipore, 115363) in PBS-T and proteins were stained with the following antibodies at 4 °C overnight: CBP […]
(§22) BRD4 (Bethyl Laboratories, A301-985A50, diluted 1:2000) and vinculin (Invitrogen, 42H89L44, diluted 1:1000). For detection, membranes were incubated for 1 h at room temperature with HRP-conjugated secondary antibodies (Southern Biotech, anti-rabbit […]
(§23) SuperSignal™ West Pico PLUS Chemiluminescent Substrate (Thermo Scientific, 34580) and the Vilber Fusion-FX7 imager. Bands were quantified using ImageJ software and protein levels normalized to protein from DMSO treated cells run on the same membrane. For dose response curves, data was fitted using a four -parameter dose-response curve in GraphPad Prism v. 9.5.1, where the top is fixed at 100 %. The DC50 was defined as the PROTAC concentration resulting in 50 % remaining protein. […]

CRBN and CBP-BRD = CRBN and CBP-BRD (Homo sapiens, UniProt Q92793+Q96SW2); assay: FluoPPI cellular ternary complex formation, CBP-BRD; type: cell-based; conditions: U2OS cells, 6 h
EP300 = biological target: T4, EP300 (Homo sapiens, UniProt Q09472); assay: Quantification of EP300 degradation by Western blotting in LP1 cells; type: cell-based; conditions: 16 h, Western blot; for % remaining EP300: 5 μM compound
T4 construct: quantification of CBP and EP300 levels by Western blotting following 16 h treatment of LP1 cells; endogenous in cells; host or cells: LP1 cells
T4 sequence (Q09472 whole entry): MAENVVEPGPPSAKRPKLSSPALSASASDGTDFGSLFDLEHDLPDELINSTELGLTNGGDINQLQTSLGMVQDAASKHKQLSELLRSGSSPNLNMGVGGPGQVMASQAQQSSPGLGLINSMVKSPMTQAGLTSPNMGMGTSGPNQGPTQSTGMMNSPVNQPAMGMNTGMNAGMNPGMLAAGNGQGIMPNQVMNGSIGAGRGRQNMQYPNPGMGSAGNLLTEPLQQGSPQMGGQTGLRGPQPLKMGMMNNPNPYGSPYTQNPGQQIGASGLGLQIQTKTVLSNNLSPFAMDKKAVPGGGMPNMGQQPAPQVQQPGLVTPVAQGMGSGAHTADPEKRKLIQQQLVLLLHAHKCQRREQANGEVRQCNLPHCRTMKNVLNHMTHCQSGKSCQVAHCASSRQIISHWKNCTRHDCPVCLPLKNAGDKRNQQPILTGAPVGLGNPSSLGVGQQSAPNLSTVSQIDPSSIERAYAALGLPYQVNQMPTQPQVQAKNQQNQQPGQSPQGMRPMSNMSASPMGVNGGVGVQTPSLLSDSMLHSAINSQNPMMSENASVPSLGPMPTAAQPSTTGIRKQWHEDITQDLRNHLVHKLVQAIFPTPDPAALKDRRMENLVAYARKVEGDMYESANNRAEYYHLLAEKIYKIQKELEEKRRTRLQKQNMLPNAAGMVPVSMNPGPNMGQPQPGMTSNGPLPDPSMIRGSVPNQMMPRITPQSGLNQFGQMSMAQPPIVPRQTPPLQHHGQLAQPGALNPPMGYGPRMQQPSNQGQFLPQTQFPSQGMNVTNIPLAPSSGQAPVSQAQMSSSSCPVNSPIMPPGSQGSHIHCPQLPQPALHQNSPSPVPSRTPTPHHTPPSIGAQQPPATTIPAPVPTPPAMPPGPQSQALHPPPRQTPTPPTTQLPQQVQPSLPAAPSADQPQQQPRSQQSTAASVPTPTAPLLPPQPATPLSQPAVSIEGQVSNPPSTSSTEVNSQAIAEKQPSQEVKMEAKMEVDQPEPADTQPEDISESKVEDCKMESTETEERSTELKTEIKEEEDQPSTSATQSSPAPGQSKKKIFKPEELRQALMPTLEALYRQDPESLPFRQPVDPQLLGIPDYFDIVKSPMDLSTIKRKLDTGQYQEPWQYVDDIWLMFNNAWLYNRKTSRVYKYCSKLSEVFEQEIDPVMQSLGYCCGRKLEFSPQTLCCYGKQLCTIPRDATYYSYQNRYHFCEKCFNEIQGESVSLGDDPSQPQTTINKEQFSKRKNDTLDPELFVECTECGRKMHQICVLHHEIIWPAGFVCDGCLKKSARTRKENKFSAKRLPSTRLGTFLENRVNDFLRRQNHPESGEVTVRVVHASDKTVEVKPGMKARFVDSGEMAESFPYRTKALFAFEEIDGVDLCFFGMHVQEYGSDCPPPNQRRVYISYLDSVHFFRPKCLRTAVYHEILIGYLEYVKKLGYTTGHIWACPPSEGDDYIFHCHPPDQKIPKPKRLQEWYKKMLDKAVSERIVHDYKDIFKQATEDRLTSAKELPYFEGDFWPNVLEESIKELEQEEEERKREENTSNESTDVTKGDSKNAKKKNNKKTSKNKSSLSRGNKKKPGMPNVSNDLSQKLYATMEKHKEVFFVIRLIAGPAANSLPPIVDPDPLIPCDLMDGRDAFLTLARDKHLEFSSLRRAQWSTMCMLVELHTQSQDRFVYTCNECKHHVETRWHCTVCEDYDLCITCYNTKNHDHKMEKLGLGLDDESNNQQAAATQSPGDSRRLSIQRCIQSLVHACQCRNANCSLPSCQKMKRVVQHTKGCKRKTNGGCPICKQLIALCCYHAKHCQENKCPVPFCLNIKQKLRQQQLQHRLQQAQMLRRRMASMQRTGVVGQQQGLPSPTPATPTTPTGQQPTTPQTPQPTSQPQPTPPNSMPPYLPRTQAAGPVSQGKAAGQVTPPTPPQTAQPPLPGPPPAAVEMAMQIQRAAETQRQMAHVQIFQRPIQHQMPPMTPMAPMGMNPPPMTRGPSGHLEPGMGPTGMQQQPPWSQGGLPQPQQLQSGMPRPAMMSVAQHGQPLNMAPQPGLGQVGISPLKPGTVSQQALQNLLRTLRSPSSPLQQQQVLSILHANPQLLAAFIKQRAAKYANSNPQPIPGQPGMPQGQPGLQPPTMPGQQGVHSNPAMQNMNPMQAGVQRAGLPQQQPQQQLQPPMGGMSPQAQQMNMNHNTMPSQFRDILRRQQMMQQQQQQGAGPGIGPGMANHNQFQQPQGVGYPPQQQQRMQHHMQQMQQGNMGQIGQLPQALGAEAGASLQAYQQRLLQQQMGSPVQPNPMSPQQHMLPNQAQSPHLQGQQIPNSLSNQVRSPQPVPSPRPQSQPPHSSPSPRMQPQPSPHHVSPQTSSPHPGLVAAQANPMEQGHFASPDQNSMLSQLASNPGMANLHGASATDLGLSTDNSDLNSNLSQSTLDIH
Procedure: as §17, §18, §19, §20, §21, §22, §23

[3] = biological target: T5, CBP-BRD:CRBN thalidomide binding domain ternary complex (Homo sapiens, UniProt Q92793+Q96SW2); assay: TR-FRET CBP-BRD:PROTAC:CRBN ternary complex formation; conditions: CBP-BRD and CRBN-thalidomide binding domain labeled with TR-FRET pair
T5 construct: GST-CBP (human, residues 1081-1197); the C-terminus of CRBN (human, residues 318-442); His6 with TEV cleavage site (N, cleaved yes); made in house; host or cells: Rosetta (DE3) cells (E. coli)
T5 sequence (Q92793 1081-1197): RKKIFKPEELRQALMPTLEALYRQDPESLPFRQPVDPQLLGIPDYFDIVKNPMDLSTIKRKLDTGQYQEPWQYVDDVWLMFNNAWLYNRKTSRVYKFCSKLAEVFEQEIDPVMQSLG
T5 sequence (Q96SW2 318-442): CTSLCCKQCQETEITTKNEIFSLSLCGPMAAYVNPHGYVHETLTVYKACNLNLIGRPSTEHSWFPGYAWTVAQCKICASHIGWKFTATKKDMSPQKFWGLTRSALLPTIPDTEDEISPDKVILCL
Procedure: (PMSF), and 1 mM EDTA) and lysed by sonication. The lysates were clarified by centrifugation (18,000 rpm, 4 °C, 1 h).
For GST-CBP the soluble proteins were loaded onto a column packed with glutathione sepharose 4B (GE Healthcare) and subsequently eluted with 10 mM reduced glutathione in buffer containing 20 mM Tris-HCl pH 8.0, and 150 mM NaCl. Finally, a size exclusion step (HiLoad 16/600 Superdex 200 pg column from GE Healthcare) was used to further purify the protein in buffer containing 50 mM HEPES pH 7.5 and 150 mM NaCl. For His-CRBN and His-CRBN-Avi(biotin), the soluble fractions were loaded onto the HisTrap FF crude column (GE Healthcare) and washed with lysis buffer supplemented with 50 mM imidazole. The proteins were eluted with a buffer containing 250 mM imidazole, 100 mM Tris-HCl pH 8.0 and 500 mM NaCl. For His-CRBN-Avi(biotin) only, recombinant TEV protease was used to cleave the His6-tag during overnight dialysis at 4 °C against buffer containing 100 mM Tris-HCl pH 8.0 and 500 mM NaCl. The dialyzed sample was passed through the HisTrap FF crude column to remove His6-tagged TEV protease and uncleaved protein. […]
The maximal control contained no PROTAC, the blank contained no SK-20 and no PROTAC – these were replaced by the appropriate buffer. […] The samples were incubated for 3 h (20 °C, dark) and the signal was detected using the Infinite M1000 plate reader (Tecan). After excitation at 317 nm, emission at 620 and 665 nm was recorded. […]
were determined according to the following equation:
activity (%) = ΔF ∗ 100 = F−Fb ∗ 100 , where Ft is the TR-FRET signal in the absence of any compound (maximal control, 100 % activity), Fb the TR-FRET signal in the absence of the GST -CBP (blank, 0 % activity) and F the TR -FRET signal in the presence of the compound. Dose -response curves were plotted in GraphPad Prism 10.2.3 and fitted with nonlinear regression “log(inhibitor) vs. normalized response – variable slope”, from which IC 50 values were determined. […]

CBP-BRD [4] = biological target: T2, CBP-BRD; assay: TR-FRET competition with acetylated peptide binding to CBP-BRD, with and without CRBN (cooperativity); set-up: GST-CBP (human, residues 1081-1197); made in house; host or cells: Rosetta (DE3) cells (E. coli)

Kd (EP300-BRD) | LE EP300 (ligand efficiency) (EP300-BRD) | Kd (CBP-BRD [1]) | LE CBP (ligand efficiency) (CBP-BRD [1]) | % remaining CBP (CBP) | % remaining EP300 (EP300) | SMILES | other results
25 nM | 0.35 | 29 nM | 0.35 |  |  | CC(=O)Nc1cc(C(=O)Nc2cccc3nnc(C)cc23)cc(-c2ccn(C)n2)c1 [compound 3] | 
9.9 nM | 0.33 | 8.7 nM | 0.33 |  |  | Cc1cc2c(NC(=O)c3cc(NC(=O)c4ccco4)cc(-c4ccn(C)n4)c3)cccc2nn1 [compound 2] | 
> 10000 nM |  | 3300 nM |  | 21% | 43% | Cc1cc2c(NC(=O)c3cc(NC(=O)CCCCCCCCCCCNc4cccc5c4C(=O)N(C4CCC(=O)NC4=O)C5=O)cc(-c4ccn(C)n4)c3)cccc2nn1 (stereo not shown) [compound 4] | ternary complex formation in cells with CBP catalytic core [2]: able to induce ternary complex formation; ternary complex formation in cells with CRBN and CBP-BRD (CRBN and CBP-BRD): good ternary complex formation
 |  |  |  | 30% | 69% | Cc1cc2c(NC(=O)c3cc(NC(=O)CCCCCCCCCCNc4ccc5c(c4)C(=O)N(C4CCC(=O)NC4=O)C5=O)cc(-c4ccn(C)n4)c3)cccc2nn1 (stereo not shown) [compound 7] | 
 |  |  |  | 81% | 95% | Cc1cc2c(NC(=O)c3cc(NC(=O)COCCOCCOCCNc4cccc5c4C(=O)N(C4CCC(=O)NC4=O)C5=O)cc(-c4ccn(C)n4)c3)cccc2nn1 (stereo not shown) [compound 8] | 
 |  |  |  | 83% | 87% | Cc1cc2c(NC(=O)c3cc(NC(=O)CCCCCCCCNc4cccc5c4C(=O)N(C4CCC(=O)NC4=O)C5=O)cc(-c4ccn(C)n4)c3)cccc2nn1 (stereo not shown) [compound 6] | 
 |  |  |  |  |  | Cc1cc2c(NC(=O)c3cc(NC(=O)CCCCCCCCCCNc4cccc5c4C(=O)N(C4CCC(=O)N(C)C4=O)C5=O)cc(-c4ccn(C)n4)c3)cccc2nn1 (stereo not shown) [compound 10] | ternary complex formation (TR-FRET) [3]: did not show cooperativity or ternary complex formation; degradation of CBP (CBP; 1 μM): abrogated; IC50 (CBP-BRD [4]; absence of CRBN, read-out: CBP-BRD IC50 (binary, IC50[control])): 220 nM; IC50 (CBP-BRD [4]; presence of high concentrations of CRBN C-terminal thalidomide binding domain, read-out: ternary IC50 (IC50[CRBN])): 230 nM; degradation of EP300 (EP300; 1 μM): abrogated
23 nM | 0.33 | 19 nM | 0.34 |  |  | CC(=O)Nc1cc(NC(=O)c2ccco2)cc(C(=O)Nc2cccc3nnc(C)cc23)c1 [compound 1] | 
45 nM |  | 28 nM |  | > 95% | > 95% | Cc1cc2c(NC(=O)c3cc(NC(=O)CCCCCCCN4CCN(c5ccc6c(c5)C(=O)N(C5CCC(=O)NC5=O)C6=O)CC4)cc(-c4ccn(C)n4)c3)cccc2nn1 (stereo not shown) [compound 9] | ternary complex formation in cells with CRBN and CBP-BRD (CRBN and CBP-BRD): good ternary complex formation
